Assays:
recombinant CETP = molecular target: T1, recombinant CETP (Homo sapiens, UniProt P11597); assay: RTA assay using recombinant CETP (2% RTA); format: biochemical; details: 2% human serum
T1 sequence (P11597 18-493): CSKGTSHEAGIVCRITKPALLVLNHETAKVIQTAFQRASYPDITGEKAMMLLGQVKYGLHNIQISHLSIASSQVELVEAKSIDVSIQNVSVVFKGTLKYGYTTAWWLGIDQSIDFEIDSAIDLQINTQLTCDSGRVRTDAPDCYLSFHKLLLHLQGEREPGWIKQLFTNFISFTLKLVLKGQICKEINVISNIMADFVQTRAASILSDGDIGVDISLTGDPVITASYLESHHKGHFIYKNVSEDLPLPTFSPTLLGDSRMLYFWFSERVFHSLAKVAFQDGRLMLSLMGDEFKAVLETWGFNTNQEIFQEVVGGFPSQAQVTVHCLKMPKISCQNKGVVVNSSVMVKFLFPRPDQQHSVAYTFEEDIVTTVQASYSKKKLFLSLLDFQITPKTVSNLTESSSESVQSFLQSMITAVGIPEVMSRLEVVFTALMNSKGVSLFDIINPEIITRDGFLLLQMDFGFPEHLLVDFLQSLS
Method: (§1) In Vitro Radioactive Assays of CETP-Catalyzed CE and TG Transfer (RTA Assay)
(§2) Reagents and sources are: [3H] cholesteryl oleate (GE #TRK.886), [3H] Triolein (Perkin-Elmer NET-431), Butylated hydroxyl toluene (Aldrich, #D4740-4), DOPC (Sigma, #P6354), Sodium Bromide (Fisher scientific #S255-500), PEG 8000 (Fisher, #BP233-1), and human HDL (Intracel Corp #RP-036).
(§3) An in vitro assay for determining IC50's to identify compounds that inhibit CETP transfer activity is performed based on a modification of a published method (Morton and Zilversmit, (1981) A plasma inhibitor of triglyceride and cholesteryl ester transfer activities, J. Biol. Chem. 256(23), 11992-11995). The ability of inhibitors to alter CETP activity is performed using two different assays: one using recombinant CETP and one using an endogenous plasma source of CETP. Both assays measure the transfer of [3H] cholesteryl oleate or [3H] triolein from exogenous LDL to HDL.
(§4) Radiolabeled donor particles are generated by first combining 100 μl of 200 μM butylated hydroxyl toluene in CHCl3, 216 μL of 21.57 mM DOPC in EtOH, and either 500 μCi [3H]-triolein (Perkin Elmer #NET-431) or 500 μCi [3H]-cholesteryl oleate (GE #TRK886) in a glass tube. Reagents are mixed, dried under nitrogen, and then resuspended in 2 mL of 50 mM Tris, 27 μM EDTA at pH 7.4. After a brief vortex, the solution is sonicated until clear and mixed with 20 mL of fresh human serum. The mixture is incubated overnight at 37° C. The [3H] labeled LDL substrate is separated at 1.063 g/ml density by sequential ultracentrifugal flotation in NaBr according to the method of Havel, Eder, et al., 1955, and Chapman, Goldstein, et al., 1981. Once isolated the particles are dialyzed 3× in CETP buffer (50 mM Tris, pH 7.4, 100 mM NaCl, 1 mM EDTA). Human HDL is purchased from Intracel and used as the acceptor particles.
(§5) Transfer assays are performed in a 96-well v-bottom polypropylene plate. For the RTA using recombinant CETP (2% RTA), an assay cocktail is prepared with the final concentrations 128 μg/mL HDL, 20 nM rCETP, 2% human serum, and 1×CETP buffer. 1 μL of each test compound diluted in DMSO is added to 47 μL of assay cocktail per well and incubated at 37° C. for 1 hour. To initiate the transfer reaction, 2 μL radiolabeled LDL is added. After an additional 60 min of incubation at 37° C., the transfer action is terminated by precipitation of LDL with an equal volume of 20% W/V PEG 8000. The plates are centrifuged at 2000 rpm for 30 minutes at 4° C. A 40 μL aliquot of the HDL-containing supernatant is transferred to a Packard Optiplate™ with 200 μL of MicroScint™ 20. After mixing, plates are counted by liquid scintillation. Counts present in the supernatant for blanks (wells containing only HDL acceptor, CETP buffer and DMSO) are subtracted from those containing test compounds and used to correct for non-specific transfer.
(§6) Comparison of the counts of samples with inhibitors to an uninhibited (DMSO only) positive control yield a percent inhibition. A plot of percent inhibition vs. log of inhibitor concentration, fit to a Sigmoidal 4 parameter equation is used to calculate IC50.

[1] = molecular target: T2, endogenous CETP from human serum (Homo sapiens, UniProt P11597); assay: RTA assay using endogenous CETP from serum (95% RTA); format: biochemical; details: 95% human serum
T2 construct: yielding a concentration of approximately 15 nM endogenous CETP in the assay; from tissue; host or cells: human serum
T2 sequence (P11597 18-493): T1 sequence (P11597 18-493)
Method: as §1, §2, §3, §4, §5
For the transfer assay using endogenous CETP from serum (95% RTA), the same procedure is used except that human serum is added such that a final concentration of serum of 95% of the total assay volume is achieved, yielding a concentration of approximately 15 nM endogenous CETP in the assay. This is then combined with HDL and CETP buffer and the reaction proceeds as above and is terminated as described.
as §6

| SMILES | IC50 (recombinant CETP) | IC50 [1] |
| --- | --- | --- |
| O[C@H](CN1CC(Cc2ccccc2OC(F)(F)F)(c2cccc(OC(F)(F)F)c2)c2ccccc21)C(F)(F)F (stereo partly drawn) [Example 9] | 1210 nM | 3370 nM |
| Cc1cccc2c1N(C[C@@H](O)C(F)(F)F)CC2(Cc1cccc(OC(F)(F)F)c1)c1cccc(OC(F)(F)F)c1 (stereo partly drawn) [Example 11] | 155 nM | 491 nM |
| O[C@H](CN1CC(Cc2cccc(OC(F)(F)F)c2)(c2cccc(OC(F)(F)F)c2)c2cccc(F)c21)C(F)(F)F (stereo partly drawn) [Example 12] | 67 nM | 222 nM |
| O[C@H](CN1CC(Cc2cccc(OC(F)(F)F)c2)(c2cc(F)cc(C(F)(F)F)c2)c2ccccc21)C(F)(F)F (stereo partly drawn) [Example 13] | 102 nM | 2510 nM |
| O[C@H](CN1CC(Cc2cccc(OC(F)(F)F)c2)(c2ccc(F)c(C(F)(F)F)c2)c2ccccc21)C(F)(F)F (stereo partly drawn) [Example 14] | 277 nM | 685 nM |
| Cc1csc(CC2(c3cccc(OC(F)(F)F)c3)CN(C[C@@H](O)C(F)(F)F)c3c(F)cccc32)n1 (stereo partly drawn) [Example 16] | 296 nM | 2000 nM |
| O[C@H](CN1CC(Cc2cccc(C(F)(F)F)c2)(c2cccc(OC(F)(F)F)c2)c2cccc(F)c21)C(F)(F)F (stereo partly drawn) [Example 17] | 66 nM | 706 nM |
| Cc1ccc(C2(Cc3cccc(OC(F)(F)F)c3)CN(C[C@@H](O)C(F)(F)F)c3ccccc32)cc1Cl (stereo partly drawn) [Example 18] | 161 nM | 1350 nM |
| O[C@H](CN1CC(Cc2cccc(OC(F)(F)F)c2)(c2ccc(F)c(Cl)c2)c2ccccc21)C(F)(F)F (stereo partly drawn) [Example 19] | 883 nM | 3740 nM |
| O[C@H](CN1CC(Cc2cccc(OC(F)(F)F)c2)(c2ccnc(C(F)(F)F)c2)c2ccccc21)C(F)(F)F (stereo partly drawn) [Example 20] | 447 nM | 2600 nM |
| CCOc1cc(C2(Cc3cccc(OC(F)(F)F)c3)CN(C[C@@H](O)C(F)(F)F)c3ccccc32)ccn1 (stereo partly drawn) [Example 21] | 60 nM | 283 nM |
| CC(C)Oc1cc(C2(Cc3cccc(OC(F)(F)F)c3)CN(C[C@@H](O)C(F)(F)F)c3ccccc32)ccn1 (stereo partly drawn) [Example 22] | 43 nM | 101 nM |
| CCOc1cc(C2(Cc3cccc(OC)c3)CN(C[C@@H](O)C(F)(F)F)c3ccccc32)ccn1 (stereo partly drawn) [Example 23] | 249 nM | 681 nM |
| O[C@H](CN1CC(Cc2cccc(OC(F)(F)F)c2)(c2ccnc(N3CCOCC3)c2)c2ccccc21)C(F)(F)F (stereo partly drawn) [Example 24] | 244 nM | 3120 nM |
| Cc1cc(C(=O)O)ccc1-c1cccc(C2(Cc3cccc(OC(F)(F)F)c3)CN(C[C@@H](O)C(F)(F)F)c3ccccc32)c1 (stereo partly drawn) [Example 27] | 378 nM | 4070 nM |
| CC1(O)CN(c2cccc(C3(Cc4cccc(OC(F)(F)F)c4)CN(C[C@@H](O)C(F)(F)F)c4ccccc43)c2)C1 (stereo partly drawn) [Example 33] | 1230 nM | 4380 nM |
| O[C@H](CN1CC(Cc2cccc(OC(F)(F)F)c2)(c2cccc(N3CC(F)C3)c2)c2ccccc21)C(F)(F)F (stereo partly drawn) [Example 34] | 59 nM | 319 nM |

| SMILES | IC50 (recombinant CETP) | IC50 [1] |
| --- | --- | --- |
| O[C@H](CN1CC(Cc2cccc(OC(F)(F)F)c2)(c2cccc(N3CCC(F)(F)C3)c2)c2ccccc21)C(F)(F)F (stereo partly drawn) [Example 35] | 98 nM | 533 nM |
| CO[C@@H]1CCN(c2cccc(C3(Cc4cccc(OC(F)(F)F)c4)CN(C[C@@H](O)C(F)(F)F)c4ccccc43)c2)C1 (stereo partly drawn) [Example 36] | 115 nM | 780 nM |
| CO[C@H]1CCN(c2cccc(C3(Cc4cccc(OC(F)(F)F)c4)CN(C[C@@H](O)C(F)(F)F)c4ccccc43)c2)C1 (stereo partly drawn) [Example 37] | 77 nM | 395 nM |
| C[C@H]1CN(c2cccc(C3(Cc4cccc(OC(F)(F)F)c4)CN(C[C@@H](O)C(F)(F)F)c4ccccc43)c2)CCO1 (stereo partly drawn) [Example 38] | 117 nM | 674 nM |
| O[C@H](CN1CC(Cc2cccc(OC(F)(F)F)c2)(c2cccc(N3CCC(F)(F)CC3)c2)c2ccccc21)C(F)(F)F (stereo partly drawn) [Example 39] | 164 nM | 1080 nM |
| O[C@H](CN1CC(Cc2cccc(OC(F)(F)F)c2)(c2cccc(N3CCCC(F)(F)C3)c2)c2ccccc21)C(F)(F)F (stereo partly drawn) [Example 40] | 119 nM | 791 nM |
| O[C@H](CN1CC(Cc2cccc(OC(F)(F)F)c2)(c2cccc(N3CC[C@H](F)C3)c2)c2ccccc21)C(F)(F)F (stereo partly drawn) [Example 41] | 72 nM | 498 nM |
| O[C@H](CN1CC(Cc2cccc(OC(F)(F)F)c2)(c2cccc(N3CC[C@@H](F)C3)c2)c2ccccc21)C(F)(F)F (stereo partly drawn) [Example 42] | 40 nM | 766 nM |
| C[C@@H]1CN(c2cccc(C3(Cc4cccc(OC(F)(F)F)c4)CN(C[C@@H](O)C(F)(F)F)c4ccccc43)c2)CCO1 (stereo partly drawn) [Example 43] | 97 nM | 932 nM |
| OC1CCN(c2cccc(C3(Cc4cccc(OC(F)(F)F)c4)CN(C[C@@H](O)C(F)(F)F)c4ccccc43)c2)C1 (stereo partly drawn) [Example 44] | 489 nM | 2040 nM |
| N#Cc1cccc(CC2(c3cccc(OC(F)(F)F)c3)CN(C[C@@H](O)C(F)(F)F)c3ccccc32)c1 (stereo partly drawn) [Example 45, 3-((1-((R)-3,3,3-trifluoro-2-hydroxypropyl)-3-(3-(trifluoromethoxy)phenyl)indolin-3-yl)methyl)benzonitrile] | 171 nM | 917 nM |
| CS(=O)(=O)c1cccc(CC2(c3cccc(OC(F)(F)F)c3)CN(C[C@@H](O)C(F)(F)F)c3ccccc32)c1 (stereo partly drawn) [Example 46, (2R)-1,1,1-trifluoro-3-(3-(3-(methylsulfonyl)benzyl)-3-(3-(trifluoromethoxy)phenyl)indolin-1-yl)propan-2-ol] | 264 nM | 8960 nM |
| O[C@H](CN1CC(Cc2cccc(-c3cccc(OC(F)(F)F)c3)c2)(c2cccc(OC(F)(F)F)c2)c2ccccc21)C(F)(F)F (stereo partly drawn) [Example 47, (2R)-1,1,1-trifluoro-3-(3-((3′-(trifluoromethoxy)-[1,1′-biphenyl]-3-yl)methyl)-3-(3-(trifluoromethoxy)phenyl)indolin-1-yl)propan-2-ol] | 720 nM | 2880 nM |
| O[C@H](CN1CC(Cc2cccc(N3CC(F)(F)C3)c2)(c2cccc(OC(F)(F)F)c2)c2ccccc21)C(F)(F)F (stereo partly drawn) [Example 48, (2R)-3-(3-(3-(3,3-difluoroazetidin-1-yl)benzyl)-3-(3-(trifluoromethoxy)phenyl)indolin-1-yl)-1,1,1-trifluoropropan-2-ol] | 83 nM | 246 nM |
| CO[C@H]1CCN(c2cccc(CC3(c4cccc(OC(F)(F)F)c4)CN(C[C@@H](O)C(F)(F)F)c4ccccc43)c2)C1 (stereo partly drawn) [Example 49] | 197 nM | 2100 nM |
| C[C@H]1CN(c2cccc(CC3(c4cccc(OC(F)(F)F)c4)CN(C[C@@H](O)C(F)(F)F)c4ccccc43)c2)CCO1 (stereo partly drawn) [Example 50] | 474 nM | 4930 nM |
